Measured values taken from patent US6083932A, “Pharmaceutical compositions derived from ginseng and methods of treatment using same” (CV Technologies Inc., priority 1998, dated 2000).
Entries after “also recorded” stand apart in the source; their conditions may differ.

Assays:
monoamine oxidase-A = target: T1, monoamine oxidase-A (Rattus norvegicus, UniProt P21396); experiment: in vitro monoamine oxidase-A inhibiting activity (radiochemical, 5-hydroxytryptamine substrate); type: biochemical; conditions: read-out: % MAO-A Inhibition; for inhibition at 1000 µg/mL: 1.0 mg/ml; for inhibition at 10000 µg/mL: 10 mg/ml
T1 construct: homogenates of rat brain; from tissue; host or cells: rat brain homogenate
T1 sequence (P21396 1-526): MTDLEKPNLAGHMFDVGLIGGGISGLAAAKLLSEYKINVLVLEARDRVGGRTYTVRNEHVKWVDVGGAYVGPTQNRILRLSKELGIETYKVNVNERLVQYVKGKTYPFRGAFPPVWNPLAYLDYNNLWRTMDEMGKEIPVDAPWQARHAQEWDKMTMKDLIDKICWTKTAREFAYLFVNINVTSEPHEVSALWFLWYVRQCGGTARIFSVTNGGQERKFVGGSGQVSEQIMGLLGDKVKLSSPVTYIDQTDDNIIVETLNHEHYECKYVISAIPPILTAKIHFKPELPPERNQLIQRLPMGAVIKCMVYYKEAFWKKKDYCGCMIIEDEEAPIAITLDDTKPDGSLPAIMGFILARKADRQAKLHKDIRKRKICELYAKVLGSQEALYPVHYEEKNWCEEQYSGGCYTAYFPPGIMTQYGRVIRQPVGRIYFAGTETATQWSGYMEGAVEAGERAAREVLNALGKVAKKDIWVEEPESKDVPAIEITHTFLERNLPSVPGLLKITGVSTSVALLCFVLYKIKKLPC
Description: (§1) Example 1 is a study of the effects of several extracts of HT1001, PQ4, PQ5, PQ6 and pure ginsenosides, on monoamine oxidase A (MAO A) and monoamine oxidase B (MAO B) activity in vitro.
(§2) HT-1001, related extracts and pure ginsenosides were evaluated for in vitro monoamine oxidase-A and monoamine oxidase-B inhibiting activity using the radiochemical procedure of Lyles and Callingham, Biochem. Pharmacol. 31: 1417-1424 (1982), employing either radiolabelled 5-hydroxytryptamine or β-phenylethylamine as substrates for monoamine oxidase-A (MAO-A) or monoamine oxidase-B (MAO-B) respectively. Various concentrations of the compounds of interest were incubated in appropriately diluted homogenates of rat brain in a 0.2 M potassium phosphate buffer. After a 15 minute preincubation period the reaction was initiated by the addition of substrate. Incubations proceded at 37° C. for 10 minutes. Incubation was terminated by the addition of acid and the radiolabelled products (5-hydroxyindoleacetic acid, 5-hydroxyindoleacetaldehyde or phenylacetic acid, phenylacetaldehyde) were extracted and quantified by liquid scintillation counting procedures. Incubations were done in triplicate and incubations including pheneizine a known MAO inhibitor were included as controls and for comparison. The percent inhibition of monoamine oxidase-A or monoamine oxidase-B activity compared to controls containing no experimental material was calculated.

monoamine oxidase-B = target: T2, monoamine oxidase-B (Rattus norvegicus, UniProt P19643); experiment: in vitro monoamine oxidase-B inhibiting activity (radiochemical, β-phenylethylamine substrate); type: biochemical; conditions: read-out: % MAO-B Inhibition; for inhibition at 1000 µg/mL: 1.0 mg/ml; for inhibition at 10000 µg/mL: 10 mg/ml
T2 construct: homogenates of rat brain; from tissue; host or cells: rat brain homogenate
T2 sequence (P19643 1-520): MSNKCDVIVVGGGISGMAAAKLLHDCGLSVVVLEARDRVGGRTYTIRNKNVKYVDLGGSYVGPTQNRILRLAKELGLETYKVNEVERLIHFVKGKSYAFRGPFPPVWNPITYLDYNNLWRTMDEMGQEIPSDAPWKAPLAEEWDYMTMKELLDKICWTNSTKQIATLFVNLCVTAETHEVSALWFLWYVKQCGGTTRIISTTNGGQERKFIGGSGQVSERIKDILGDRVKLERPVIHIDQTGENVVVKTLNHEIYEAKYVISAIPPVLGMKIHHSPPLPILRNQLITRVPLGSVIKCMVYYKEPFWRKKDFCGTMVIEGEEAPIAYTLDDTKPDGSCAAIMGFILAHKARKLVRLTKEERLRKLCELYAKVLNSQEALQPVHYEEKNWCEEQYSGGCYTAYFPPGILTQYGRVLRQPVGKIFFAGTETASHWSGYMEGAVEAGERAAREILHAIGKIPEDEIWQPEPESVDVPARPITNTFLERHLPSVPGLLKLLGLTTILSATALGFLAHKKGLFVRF
Description: as §1, §2

[1] = test system: ACh in the cortical and hippocampal regions of the brain; conditions: U.S. Pat. No. 5,137,878; cited from earlier work
L type calcium channel = L type calcium channel currents in N1E115 neuroblastoma cells (whole-cell patch-clamp); type: cell-based, mouse; conditions: same concentration (100 μM); N1E-115 cells
Description: A study of the effects of HT1001 and some pure ginsenosides on calcium channel activity in cultured neuroblastoma cells was conducted.
Neuroblastoma Cell Culture. Mouse neuroblastoma cells (N1E115) were cultured in Dulbecco's modified Eagle's medium (GIBCO) containing 10% fetal bovine serum at 37° C. in a humidified atmosphere of 5% CO2 in air. The medium was changed every 3-4 days. After mechanical agitation, 3×10^4 cells were replanted in 35 mm tissue culture dishes containing 4 ml of bath solution. After cell attachment, the dish was mounted on the stage of an inverted phase-contrast microscope (Nikon) for Ca^2+ channel current recording. These cells expressed predominately T channel currents. In experiments where L channels were specifically sought, the cells were grown and maintained at confluence for 3-4 weeks under the same culture conditions with the addition of 2% (vol/vol) dimethyl sulfoxide. Three to five days before use, the cells were replanted with the same medium. These cells expressed predominately L channel currents. […]
Ca^2+ Channel Current Recording in Neuroblastoma Cells. […] Since the peak currents measured with 20 mM Ba^2+ as the charge carrier were usually small (about 200 pA) the series resistance compensation was not usually employed. […] For every single-cell recording, stable readings were first obtained for 5 min; the drug was then added to the bath solution. […]

CC(C)=CCC[C@](C)(O[C@@H]1O[C@H](CO[C@@H]2O[C@H](CO)[C@@H](O)[C@H](O)[C@H]2O)[C@@H](O)[C@H](O)[C@H]1O)[C@H]1CC[C@]2(C)[C@@H]1[C@H](O)C[C@@H]1[C@@]3(C)CC[C@H](O[C@@H]4O[C@H](CO)[C@@H](O)[C@H](O)[C@H]4O[C@@H]4O[C@H](CO)[C@@H](O)[C@H](O)[C@H]4O)C(C)(C)[C@@H]3CC[C@]12C [Rb1, ginsenoside Rb1]
inhibition at 1000 µg/mL (monoamine oxidase-A): -6.9% | inhibition at 10000 µg/mL (monoamine oxidase-A): 7.1% | inhibition at 1000 µg/mL (monoamine oxidase-B): -11.6% | inhibition at 10000 µg/mL (monoamine oxidase-B): -7.8% | availability of ACh [1]: enhance the availability of ACh | symptoms of Alzheimer-type senile dementia [1]: alleviate the symptoms of Alzheimer-type senile dementia | effect on L type calcium channel currents (L type calcium channel): significant inhibitory effect; also recorded: inhibitory effects

CC(C)=CCC[C@](C)(O[C@@H]1O[C@H](CO)[C@@H](O)[C@H](O)[C@H]1O)[C@H]1CC[C@]2(C)[C@@H]1[C@H](O)C[C@@H]1[C@@]3(C)CC[C@H](O)C(C)(C)[C@@H]3[C@@H](O[C@@H]3O[C@H](CO)[C@@H](O)[C@H](O)[C@H]3O)C[C@]12C [Rg1, ginsenoside Rg1]
inhibition at 1000 µg/mL (monoamine oxidase-A): -10.8% | inhibition at 10000 µg/mL (monoamine oxidase-A): 5.1% | inhibition at 1000 µg/mL (monoamine oxidase-B): -7.2% | inhibition at 10000 µg/mL (monoamine oxidase-B): -5% | availability of ACh [1]: enhance the availability of ACh | symptoms of Alzheimer-type senile dementia [1]: alleviate the symptoms of Alzheimer-type senile dementia | effect on L type calcium channel currents (L type calcium channel): significant inhibitory effect; also recorded: inhibitory effects
